Experiments:
[1] = Inhibition of reverse transcriptase E138K mutant in HIV-1 3B infected in human MT4 cells assessed as reduction in virus-induced cytopathic effect incubated for 5 days by MTT assay
[2] = Inhibition of reverse transcriptase Y181C mutant in HIV-1 3B infected in human MT4 cells assessed as reduction in virus-induced cytopathic effect incubated for 5 days by MTT assay
[3] = Inhibition of reverse transcriptase L100I mutant in HIV-1 3B infected in human MT4 cells assessed as reduction in virus-induced cytopathic effect incubated for 5 days by MTT assay
[4] = Inhibition of reverse transcriptase K103N mutant in HIV-1 3B infected in human MT4 cells assessed as reduction in virus-induced cytopathic effect incubated for 5 days by MTT assay
[5] = Inhibition of reverse transcriptase Y188L mutant in HIV-1 3B infected in human MT4 cells assessed as reduction in virus-induced cytopathic effect incubated for 5 days by MTT assay

Question: With `COc1cc(-c2ccc(C#N)cc2)ccc1C(O)c1ccnc(Nc2ccc(C#N)cc2)n1` (configuration not stated) as the compound, how does the EC50 [1] read?
Answer: 7.4 nM

Question: And the EC50 [2]?
Answer: 32 nM

Question: What about the EC50 [3] of the same compound?
Answer: 113 nM

Question: What does the source list for `COc1cc(-c2ccc(C#N)cc2)ccc1[C@@H](O)c1ccnc(Nc2ccc(C#N)cc2)n1`?
Answer: EC50 [1]: 196 nM; EC50 [4]: 438 nM; EC50 [2]: 507 nM; EC50 [3]: 1250 nM

Question: Which EC50 [4] does the source give for `COc1cc(-c2ccc(C#N)cc2)ccc1[C@H](O)c1ccnc(Nc2ccc(C#N)cc2)n1` here?
Answer: 6.7 nM

Question: What about the EC50 [2] of the same compound?
Answer: 15 nM

Question: What about the EC50 [5] of the same compound?
Answer: 88 nM

Question: And the EC50 [3]?
Answer: 67 nM

Question: With `N#Cc1ccc(Nc2nccc(C(O)c3ccc(-c4ccc(C#N)cc4)cc3Cl)n2)cc1` (configuration not stated) as the compound, how does the EC50 [1] read?
Answer: 7.3 nM

Question: And the EC50 [4]?
Answer: 5.9 nM

Question: And the EC50 [2]?
Answer: 14 nM

Question: What about the EC50 [5] of the same compound?
Answer: 297 nM

Question: What about the EC50 [3] of the same compound?
Answer: 91 nM

Question: For `N#Cc1ccc(Nc2nccc([C@H](O)c3ccc(-c4ccc(C#N)cc4)cc3Cl)n2)cc1`, which EC50 [1] is on record?
Answer: 206 nM

Question: And the EC50 [4]?
Answer: 251 nM

Question: And the EC50 [2]?
Answer: 799 nM

Question: What about the EC50 [3] of the same compound?
Answer: 1580 nM

Question: Which results are given for `N#Cc1ccc(Nc2nccc([C@@H](O)c3ccc(-c4ccc(C#N)cc4)cc3Cl)n2)cc1`?
Answer: EC50 [1]: 3 nM; EC50 [4]: 3.2 nM; EC50 [2]: 14 nM; EC50 [5]: 128 nM; EC50 [3]: 53 nM

Question: For `N#Cc1ccc(Nc2nccc(C(O)c3ccc(-c4ccc(C#N)cc4)cc3F)n2)cc1` (configuration not stated), which EC50 [1] is on record?
Answer: 29 nM

Question: What about the EC50 [4] of the same compound?
Answer: 88 nM

Question: What about the EC50 [2] of the same compound?
Answer: 112 nM

Question: And the EC50 [5]?
Answer: 4180 nM

Question: What about the EC50 [3] of the same compound?
Answer: 902 nM

Question: Which EC50 [1] does the source give for `N#Cc1ccc(Nc2nccc([C@H](O)c3ccc(-c4ccc(C#N)cc4)cc3F)n2)cc1` here?
Answer: 164 nM

Question: And the EC50 [4]?
Answer: 736 nM

Question: What about the EC50 [2] of the same compound?
Answer: 1160 nM

Question: And the EC50 [5]?
Answer: > 30000 nM

Question: And the EC50 [3]?
Answer: 3630 nM

Question: What does the source list for `N#Cc1ccc(Nc2nccc([C@@H](O)c3ccc(-c4ccc(C#N)cc4)cc3F)n2)cc1`?
Answer: EC50 [1]: 9.3 nM; EC50 [4]: 50 nM; EC50 [2]: 78 nM; EC50 [3]: 380 nM

Question: For `Cc1cc(-c2ccc(C#N)cc2)ccc1C(O)c1ccnc(Nc2ccc(C#N)cc2)n1` (configuration not stated), which EC50 [1] is on record?
Answer: 9.8 nM

Question: And the EC50 [4]?
Answer: 18 nM

Question: What about the EC50 [2] of the same compound?
Answer: 31 nM

Question: And the EC50 [5]?
Answer: 623 nM

Question: And the EC50 [3]?
Answer: 184 nM

Question: Which EC50 [1] does the source give for `Cc1cc(-c2ccc(C#N)cc2)ccc1[C@@H](O)c1ccnc(Nc2ccc(C#N)cc2)n1` here?
Answer: 149 nM

Question: What about the EC50 [4] of the same compound?
Answer: 479 nM

Question: What about the EC50 [2] of the same compound?
Answer: 743 nM

Question: And the EC50 [3]?
Answer: 2640 nM

Question: What does the source list for `Cc1cc(-c2ccc(C#N)cc2)ccc1[C@H](O)c1ccnc(Nc2ccc(C#N)cc2)n1`?
Answer: EC50 [1]: 5.5 nM; EC50 [4]: 8.6 nM; EC50 [2]: 19 nM; EC50 [5]: 264 nM; EC50 [3]: 81 nM

Question: What does the source list for `N#Cc1ccc(Nc2nccc(C(O)c3ccc(-c4ccc(C#N)cc4)cc3C(F)(F)F)n2)cc1` (configuration not stated)?
Answer: EC50 [1]: 26 nM; EC50 [4]: 26 nM; EC50 [2]: 59 nM; EC50 [5]: 552 nM; EC50 [3]: 212 nM

Question: Which results are given for `N#Cc1ccc(Nc2nccc([C@H](O)c3ccc(-c4ccc(C#N)cc4)cc3C(F)(F)F)n2)cc1`?
Answer: EC50 [1]: 933 nM; EC50 [4]: 1910 nM; EC50 [2]: 1820 nM; EC50 [5]: > 24100 nM; EC50 [3]: 1740 nM

Question: What does the source list for `N#Cc1ccc(Nc2nccc([C@@H](O)c3ccc(-c4ccc(C#N)cc4)cc3C(F)(F)F)n2)cc1`?
Answer: EC50 [1]: 9.1 nM; EC50 [4]: 15 nM; EC50 [2]: 30 nM; EC50 [5]: 318 nM; EC50 [3]: 93 nM

Question: For `N#Cc1ccc(Nc2nccc(C(O)c3c(F)cc(-c4ccc(C#N)cc4)cc3F)n2)cc1` (configuration not stated), which EC50 [1] is on record?
Answer: 25 nM

Question: What about the EC50 [4] of the same compound?
Answer: 61 nM

Question: And the EC50 [2]?
Answer: 125 nM

Question: And the EC50 [5]?
Answer: 3500 nM

Question: And the EC50 [3]?
Answer: 410 nM

Question: Which EC50 [1] does the source give for `N#Cc1ccc(Nc2nccc([C@H](O)c3c(F)cc(-c4ccc(C#N)cc4)cc3F)n2)cc1` here?
Answer: 55 nM

Question: What about the EC50 [4] of the same compound?
Answer: 364 nM

Question: What about the EC50 [2] of the same compound?
Answer: 432 nM

Question: What about the EC50 [5] of the same compound?
Answer: 5940 nM

Question: What about the EC50 [3] of the same compound?
Answer: 1430 nM

Question: For `N#Cc1ccc(Nc2nccc([C@@H](O)c3c(F)cc(-c4ccc(C#N)cc4)cc3F)n2)cc1`, which EC50 [1] is on record?
Answer: 8.4 nM

Question: And the EC50 [4]?
Answer: 36 nM

Question: What about the EC50 [2] of the same compound?
Answer: 89 nM

Question: And the EC50 [5]?
Answer: 2250 nM

Question: What about the EC50 [3] of the same compound?
Answer: 341 nM

Question: For `Cc1cc(-c2ccc(C#N)cc2)cc(C)c1C(O)c1ccnc(Nc2ccc(C#N)cc2)n1` (configuration not stated), which EC50 [1] is on record?
Answer: 16 nM

Question: What about the EC50 [4] of the same compound?
Answer: 7 nM

Question: What about the EC50 [2] of the same compound?
Answer: 23 nM

Question: And the EC50 [5]?
Answer: 417 nM

Question: What about the EC50 [3] of the same compound?
Answer: 49 nM

Question: With `Cc1cc(-c2ccc(C#N)cc2)cc(C)c1[C@@H](O)c1ccnc(Nc2ccc(C#N)cc2)n1` as the compound, how does the EC50 [1] read?
Answer: 19 nM

Question: And the EC50 [4]?
Answer: 21 nM

Question: What about the EC50 [2] of the same compound?
Answer: 46 nM

Question: And the EC50 [5]?
Answer: 2200 nM

Question: And the EC50 [3]?
Answer: 165 nM

Question: With `Cc1cc(-c2ccc(C#N)cc2)cc(C)c1[C@H](O)c1ccnc(Nc2ccc(C#N)cc2)n1` as the compound, how does the EC50 [1] read?
Answer: 7.2 nM

Question: And the EC50 [4]?
Answer: 3.9 nM

Question: And the EC50 [2]?
Answer: 7.4 nM

Question: What about the EC50 [3] of the same compound?
Answer: 20 nM

— BindingDB's records for doi:10.1016/j.ejmech.2020.112549 (Sichuan University, 2020)
